Measurements as given in patent US6228602A, “Competitive apo-peroxidase assay” (Bayer Corporation, priority 1999, dated 2001).
One block for each molecule: values may come before it.

Legend:
[1] = Metal porphyrin study: metal porphyrin in water without apo-enzyme (Example IV); format: biochemical; conditions: HEMASTIX no lepidine/pH 7.5
Description: (§1) In this example, other metal porphyrins were tested for their ability to reactivate different types of apo-peroxidases. Metals such as Fe, Cu, Mg, Zn, Ni, Mn, Co and Pd were complexed to hematin and added to the peroxidase detecting agent. Metals such as Mn, Fe, Cu and Co and porphyrins other than hematin, i.e. deuteroporphyrin and coproporphyrin were also shown to provide the desired response.

[2] = biological target: T1, apo-POD (Armoracia rusticana, UniProt P00433); test: Metal porphyrin study: reactivation of apo-peroxidase (Example IV); format: biochemical, horse radish; conditions: for % R @ 90 second read time on CLINITEK-200+, mean: 12 μM apo-POD, HEMASTIX no lepidine/pH 7.5
T1 construct: purchased Sigma Chemical Company, St. Louis, Mo
T1 sequence (P00433 31-353): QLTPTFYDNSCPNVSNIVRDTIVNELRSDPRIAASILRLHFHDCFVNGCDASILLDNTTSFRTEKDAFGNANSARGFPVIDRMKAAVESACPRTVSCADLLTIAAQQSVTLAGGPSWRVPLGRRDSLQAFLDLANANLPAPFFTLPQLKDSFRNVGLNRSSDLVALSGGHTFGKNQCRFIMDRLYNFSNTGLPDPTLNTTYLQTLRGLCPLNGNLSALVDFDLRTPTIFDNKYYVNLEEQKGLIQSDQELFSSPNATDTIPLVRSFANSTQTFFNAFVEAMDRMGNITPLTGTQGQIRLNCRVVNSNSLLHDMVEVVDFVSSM
Description: as §1

[3] = biological target: Apoglucose oxidase; conditions: apoglucose oxidase and FAD; U.S. Pat. No. 4,493,890; read-out: binding constant; cited from earlier work
[4] = biological target: T1, apo-POD; test: Interference study with peroxidase detecting dry reagent (Example III); format: biochemical, horse radish
Description: In this example, a peroxidase detecting dry reagent with resistance to 0.81 mg/dL hemoglobin (or myoglobin) and 25 mg/dL ascorbate and sufficient sensitivity to detect apo-peroxidase reactivation was used. […]
The reagent was tested by dipping it into solutions containing the interfering substance with and without Fe hematin. […]

[5] = biological target: T2, apo-Hb (Homo sapiens, UniProt P68871+P69905); test: Metal porphyrin study: reactivation of apo-hemoglobin (Example IV); format: biochemical; conditions: 12 μM apo-Hb, 12 μM metal porphyrin, HEMASTIX no lepidine/pH 7.5
T2 construct: made in house
Description: as §1
A 0.7% solution of hemoglobin was lowered to pH 1.5 and the resulting solution was ultrafiltered through a 10 KDa cutoff membrane followed by several changes of water. Filtered material was reconstituted into water. The apo-hemoglobin passed […]. […] It produced a HEMASTIX® result of +++++ indicating a high concentration of hemoglobin.

[6] = biological target: T3, apo-peroxidase (Armoracia rusticana, UniProt P00433); test: Proximity effect: antibody binding of hematin-antigen conjugate prevents apo-enzyme reactivation (Example II); format: biochemical, horse radish; conditions: for Reagent Response (% R @ 30 Sec) @ 660 nm: 36 nM apo-peroxidase, 36 nM antigen-hematin, 36 nM antibody
T3 construct: purchased Sigma Chemical Company, St. Louis, Mo
T3 sequence (P00433 31-353): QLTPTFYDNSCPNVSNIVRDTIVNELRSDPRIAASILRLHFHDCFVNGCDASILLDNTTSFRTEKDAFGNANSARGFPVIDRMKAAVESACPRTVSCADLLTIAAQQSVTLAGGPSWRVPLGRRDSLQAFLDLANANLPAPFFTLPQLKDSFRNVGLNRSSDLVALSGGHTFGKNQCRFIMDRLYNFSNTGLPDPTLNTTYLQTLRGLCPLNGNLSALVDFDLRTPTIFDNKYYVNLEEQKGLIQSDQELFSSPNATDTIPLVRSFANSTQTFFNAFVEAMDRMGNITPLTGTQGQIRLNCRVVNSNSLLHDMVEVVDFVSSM
Description: A 10 μL sample of hematin-BJP^1 (3.6 μM, 8.61 mg/dL in phosphate buffered saline), anti-BJP (3.6 μM, 52.56 mg/dL in PBS) and BJP (3.6 μM, 8.28 mg/dL in phosphate buffered saline) were mixed with 10 μL apo-POD (3.6 μM, 14.0 mg/dL in phosphate buffered saline) and […] phosphate buffered saline. The solution was incubated for 5 to 10 minutes at room temperature and the response to HEMASTIX® reagent dipped in the test solution was measured using a CLINITEK®-200 instrument. The response of HEMASTIX® reagent with the phosphate buffered saline solution containing hematin alone was 65.7% reflectance at 1 minute. Sheep anti-human BJP monoclonal antibody was obtained from The Binding Site Limited of Birmingham, England.
In this example, antibody binding of the hematin-antigen conjugate is shown to prevent apo-enzyme reactivation (Table 4). The data set out in Table 4 were generated by using the HEMASTIX® formula with lepidine but lacking apo-peroxidase, antigen-hematin antigen and antibody. The later were mixed in solution and reagent strips with the modified HEMASTIX® formula were immediately dipped into the solution and read using a CLINITEK™-200+ reflectance spectrometer.

[7] = biological target: T1, apo-POD; test: Detection limit study: peroxidase activity / apo-POD reactivation read with HEMASTIX reagent (Example I); format: biochemical, horse radish; conditions: 3.6 nM
Description: In this example apo-peroxidase is compared to hematin and hematin-antigen conjugates to determine the detectable concentrations and effects of conjugation and antigen molecular weight on apo-enzyme reactivations. Solutions containing combinations of apo-POD, Fe^+3 hematin and hematin conjugate were tested for peroxidase activity. Peroxidase activity was measured in urine using HEMASTIX® reagent as set out in Table 3. This reagent is similar to that set out in Table 1 but lacking the metal porphyrin conjugate, competitive binder and apo-peroxidase while containing lepidine as an activator.
A 10 μL portion of hematin (3.6 μM, 0.23 mg/dL in phosphate buffered saline) or a 10 μL hematin-BJP allotment (3.6 μM, 8.61 mg/dL in phosphate buffered saline) was mixed with 10 μL apo-POD (3.6 μM, 14.0 mg/dL in phosphate buffered saline) all in 980 μL of phosphate buffered saline and then diluted to the desired concentration with additional phosphate buffered saline. The solution was incubated for 1 minute at 40° C. or at room temperature. The response of HEMASTIX® reagent dipped into the test solution was measured on a CLINITEK™-200 reflectance instrument. The response of the reagent set out in Table 1 on the phosphate buffered solution alone was 65.2% reflectance at 1 minute.
Apo-horse radish peroxidase was obtained from Sigma Chemical Company of St. Louis, Mo. The phosphate buffered solution was prepared by adding 0.69 g monobasic sodium phosphate, 0.71 g of dibasic sodium phosphate and 0.45 g of sodium chloride to 100 mL of water.
The HEMASTIX® reagent referred to earlier with the addition of lepidine and at a lower pH when compared to the formula of Table 1 was applied to the strip in a two dip system of the following composition and used in Examples I to IV (Table 3).

[8] = biological target: T1, apo-POD; test: as above; format: biochemical, horse radish; conditions: 1 minute @ 30° C.

T2 sequence (P69905 2-142 limits assumed): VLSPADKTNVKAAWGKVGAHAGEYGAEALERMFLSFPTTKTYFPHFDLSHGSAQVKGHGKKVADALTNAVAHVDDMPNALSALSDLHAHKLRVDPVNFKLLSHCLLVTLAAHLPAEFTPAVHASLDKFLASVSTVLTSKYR
T2 sequence (P68871 2-147 limits assumed): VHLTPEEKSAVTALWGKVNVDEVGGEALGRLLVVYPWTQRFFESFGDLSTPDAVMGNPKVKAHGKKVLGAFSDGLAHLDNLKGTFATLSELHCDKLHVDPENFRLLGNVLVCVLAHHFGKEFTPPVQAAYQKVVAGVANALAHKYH

SMILES: CC1=Cc2cc3[n-]c(cc4nc(cc5[n-]c(cc1n2)cc5C)C(C)=C4CCC(=O)O)c(CCC(=O)O)c3C.[Cu+2] [Cu deuteroporphyrin]
% R @ 90 second read time on CLINITEK-200+, mean ([1]; 120 μM metal porphyrin): 73.7 % R
% R @ 90 second read time on CLINITEK-200+, mean ([2]; 120 μM metal porphyrin): 57.2 % R
response / activity with apo-peroxidase (in words) ([2]; metal porphyrin study): responses similar to those obtained for Fe

SMILES: Cc1cc2nc3c(=O)[nH]c(=O)nc-3n(C[C@H](O)[C@H](O)[C@H](O)COP(=O)(O)OP(=O)(O)OC[C@H]3O[C@@H](n4cnc5c(N)ncnc54)[C@H](O)[C@@H]3O)c2cc1C [FAD, flavin adenine dinucleotide]
Kd [3]: ~0.1 nM

SMILES: C=CC1=C(C)c2cc3[n-]c(cc4[n-]c(cc5nc(cc1n2)C(C)=C5C=C)c(C)c4CCC(=O)O)c(CCC(=O)O)c3C.O.[Fe+2] [Fe Hematin]
% R response, mean ([4]; +3.6 μM Fe Hematin, HEMASTIX (lepidine/pH 6.3), Water): 8.8%
% R response, mean ([4]; +3.6 μM Fe Hematin, HEMASTIX (no lepidine/pH 7.5), Water): 79.2%
% R response, mean ([4]; +12 μM Fe Hematin/12 μM apo-POD, HEMASTIX (lepidine/pH 6.3), Water): 4.1%
% R response, mean ([4]; +12 μM Fe Hematin/12 μM apo-POD, HEMASTIX (no lepidine/pH 7.5), 25 mg/dL Ascorbic): 55.3%
% R response, mean ([4]; +12 μM Fe Hematin/12 μM apo-POD, HEMASTIX (no lepidine/pH 7.5), Water): 54.0%
% R response, mean ([4]; +12 μM Fe Hematin, HEMASTIX (lepidine/pH 6.3), 25 mg/dL Ascorbic): 5.3%
% R response, mean ([4]; +12 μM Fe Hematin, HEMASTIX (lepidine/pH 6.3), Water): 6.4%
% R response, mean ([4]; +12 μM Fe Hematin, HEMASTIX (no lepidine/pH 7.5), 25 mg/dL Ascorbic): 73.2%
% R response, mean ([4]; +12 μM Fe Hematin, HEMASTIX (no lepidine/pH 7.5), Water): 72.4%
% R response, mean ([4]; +36 μM Fe Hematin, HEMASTIX (lepidine/pH 6.3), Water): 3.1%
% R @ 90 second read time on CLINITEK-200+, mean ([1]; 12 μM metal porphyrin): 71.5 % R
% R @ 90 second read time on CLINITEK-200+, mean ([2]; 12 μM metal porphyrin): 50.9 % R
% R @ 90 second read time on CLINITEK-200+, mean [5]: 45.3 % R

SMILES: CC1=Cc2cc3[n-]c(cc4nc(cc5[n-]c(cc1n2)cc5C)C(C)=C4CCC(=O)O)c(CCC(=O)O)c3C.[Fe+2] [Fe deuteroporphyrin]
% R @ 90 second read time on CLINITEK-200+, mean ([1]; 12 μM metal porphyrin): 72.2 % R
% R @ 90 second read time on CLINITEK-200+, mean ([2]; 12 μM metal porphyrin): 56.1 % R
% R @ 90 second read time on CLINITEK-200+, mean [5]: 49.2 % R

The remaining lines, values ahead:

% R @ 90 second read time on CLINITEK-200+, mean ([1]; 120 μM metal porphyrin): 74.4 % R
% R @ 90 second read time on CLINITEK-200+, mean ([2]; 120 μM metal porphyrin): 70.9 % R
SMILES: CC1=Cc2cc3[n-]c(cc4nc(cc5[n-]c(cc1n2)cc5C)C(C)=C4CCC(=O)O)c(CCC(=O)O)c3C.[Mg+2] [Mg deuteroporphyrin]

Reagent Response (% R @ 30 Sec) @ 660 nm ([6]; 24 nM antigen): 21.3 % R
Reagent Response (% R @ 30 Sec) @ 660 nm ([6]; free antigen none): 23.6 % R
prevention of apo-enzyme reactivation by antibody (in words) ([6]; antigen-hematin plus antibody): did not prevent apo-enzyme reactivation
SMILES: Cc1cc(C)nc(NS(=O)(=O)c2ccc(N)cc2)n1 [Sulfamethazine]

% R @ 90 second read time on CLINITEK-200+, mean ([1]; 120 μM metal porphyrin): 71.3 % R
% R @ 90 second read time on CLINITEK-200+, mean ([2]; 120 μM metal porphyrin): 70.7 % R
SMILES: CC1=Cc2cc3[n-]c(cc4nc(cc5[n-]c(cc1n2)cc5C)C(C)=C4CCC(=O)O)c(CCC(=O)O)c3C.[Zn+2] [Zn deuteroporphyrin]

peroxidase activity (in words) ([7]; in the presence of apo-POD): detectable at 3.6 nM
peroxidase activity (in words) ([7]; without partner): not detectable
Mean % Reflectance @ 660 nm ([8]; 3.6 nM, antigen IgG, hematin, antigen-hematin or apo-POD alone (Cases A, B, E)): 64.9%
Mean % Reflectance @ 660 nm ([8]; 3.6 nM, antigen IgG, with apo-POD (Cases C, D)): 46.3%
Mean % Reflectance @ 660 nm ([8]; (3.6 nM; antigen Sulfmethazine), hematin, antigen-hematin or apo-POD alone (Cases A, B, E)): 63.4%
Mean % Reflectance @ 660 nm ([8]; (3.6 nM; antigen Sulfmethazine), with apo-POD (Cases C, D)): 48.9%
Mean % Reflectance @ 660 nm ([8]; (3.6 mM; antigen BJP), hematin, antigen-hematin or apo-POD alone (Cases A, B, E)): 65.1%
Mean % Reflectance @ 660 nm ([8]; (3.6 mM; antigen BJP), with apo-POD (Cases C, D)): 55.3%
response of HEMASTIX reagent, % reflectance ([6]; phosphate buffered saline solution containing hematin alone, 1 minute): 65.7 % reflectance
SMILES: C=CC1=C(C)c2cc3[n-]c(cc4[n-]c(cc5nc(cc1n2)C(C)=C5C=C)c(C)c4CCC(=O)O)c(CCC(=O)O)c3C.O.[Fe+2] [hematin]
